Assay results reported in patent US7601332B2, “Vitamin receptor binding drug delivery conjugates” (priority 2003, dated 2009).

How the values were obtained:
[1] = test system: M109 tumors (folate receptor-positive); assay: Inhibition of subcutaneous M109 tumor growth in mice; assay type: in vivo; conditions: Balb/c mice, s.c. M109 tumors, i.v. twice a week for 4 weeks, 2-10 μmol/kg
Method: The anti-tumor activity of the compounds of Examples 9b (EC111) and 9c (EC112), where the drug is daunorubicin, when administered intravenously (i.v.) to tumor-bearing animals, was evaluated in Balb/c mice bearing subcutaneous M109 tumors. Four days post tumor inoculation in the subcutis of the right axilla with 1×10^6 M109 cells, mice (5/group) were injected i.v. twice a week for 4 weeks with 2-10 μmol/kg of the compound of either Example 9b or Example 9c or with unconjugated daunorubicin or PBS. Tumor growth was measured using calipers at 3-day or 4-day intervals in each treatment group. Tumor volumes were calculated using the equation V=a×b^2/2, where “a” is the length of the tumor and “b” is the width expressed in millimeters. Animal body weight was also determined at 3-day or 4-day intervals. […]
The anti-tumor activity of the compound of Example 16b (EC145), where the drug is deacetylvinblastine monohydrazide, when administered intravenously (i.v.) to tumor-bearing animals, was evaluated in Balb/c mice bearing subcutaneous M109 tumors. […] Tumor growth was measured using calipers at 2-day or 3-day intervals in each treatment group. Tumor volumes were calculated using the equation V=a×b^2/2, where “a” is the length of the tumor and “b” is the width expressed in millimeters. […]

[2] = Toxicity based on animal body weights in tumor-bearing mice; assay type: in vivo; conditions: Balb/c mice, s.c. M109 tumors, i.v. twice a week for 4 weeks, 2-10 μmol/kg
Method: The anti-tumor activity of the compounds of Examples 9b (EC111) and 9c (EC112), where the drug is daunorubicin, when administered intravenously (i.v.) to tumor-bearing animals, was evaluated in Balb/c mice bearing subcutaneous M109 tumors. Four days post tumor inoculation in the subcutis of the right axilla with 1×10^6 M109 cells, mice (5/group) were injected i.v. twice a week for 4 weeks with 2-10 μmol/kg of the compound of either Example 9b or Example 9c or with unconjugated daunorubicin or PBS. Tumor growth was measured using calipers at 3-day or 4-day intervals in each treatment group. Tumor volumes were calculated using the equation V=a×b^2/2, where “a” is the length of the tumor and “b” is the width expressed in millimeters. Animal body weight was also determined at 3-day or 4-day intervals.
The protocol was as described in Example 42 except that the compound of Example 10a (EC105) was used, where the drug is bis-indolyl-seco-CBI. The compound of Example 10a was injected at a dose of 0.3 μmol/kg. Also, two subcutaneous tumor models were tested including the M109 model (folate receptor-positive) and the 4T1 model (folate receptor-negative), and in some animals a 67-fold excess of free folate (20 μmol/kg; FA) was coinjected with the conjugate (i.e., the compound of Example 10a).

SMILES | anti-tumor activity (growth of M109 tumors) [1] | toxicity based on animal body weights [2]
COc1cccc2c1C(=O)c1c(O)c3c(c(O)c1C2=O)C[C@@](O)(/C(CO)=N\NC(=O)CCN1C(=O)CC(SC[C@H](NC(=O)CC[C@H](NC(=O)c2ccc(NCc4cnc5nc(N)[nH]c(=O)c5n4)cc2)C(=O)O)C(=O)O)C1=O)C[C@@H]3O[C@H]1CC(N)[C@H](O)C(C)O1 (stereo partly shown) [Example 9c] | effective in delaying the growth of M109 tumors | no apparent toxicity
COc1cccc2c1C(=O)c1c(O)c3c(c(O)c1C2=O)C[C@@](O)(C(=O)CO)C[C@@H]3O[C@H]1C[C@H](N)[C@H](O)[C@H](C)O1 [doxorubicin] | provided an anti-tumor response | concomitant toxicity
